Read-outs that look alike come from different tables or passages of the source.
How the values were obtained:
[1] = test system: neuropathic pain model (Chung model); test: Neuropathic pain model (Chung model, SNL), paw withdrawal threshold; format: in vivo, rat; settings: subcutaneous 50 mg/kg or oral 100 mg/kg; gabapentin 55 to 70 mg/kg intraperitoneal; FIGS. 1 to 22
GlyT2 = biological target: T1, GlyT2 (Rattus norvegicus, UniProt P58295); test: FLIPR membrane potential assay for GlyT2 target activity (T-rex-293-rGlyT2 cells); format: cell-based; settings: for inhibition at 10 µM: read-out: GlyT2 % inhibition
T1 construct: expressed in transfected cells
T1 sequence (P58295 1-799): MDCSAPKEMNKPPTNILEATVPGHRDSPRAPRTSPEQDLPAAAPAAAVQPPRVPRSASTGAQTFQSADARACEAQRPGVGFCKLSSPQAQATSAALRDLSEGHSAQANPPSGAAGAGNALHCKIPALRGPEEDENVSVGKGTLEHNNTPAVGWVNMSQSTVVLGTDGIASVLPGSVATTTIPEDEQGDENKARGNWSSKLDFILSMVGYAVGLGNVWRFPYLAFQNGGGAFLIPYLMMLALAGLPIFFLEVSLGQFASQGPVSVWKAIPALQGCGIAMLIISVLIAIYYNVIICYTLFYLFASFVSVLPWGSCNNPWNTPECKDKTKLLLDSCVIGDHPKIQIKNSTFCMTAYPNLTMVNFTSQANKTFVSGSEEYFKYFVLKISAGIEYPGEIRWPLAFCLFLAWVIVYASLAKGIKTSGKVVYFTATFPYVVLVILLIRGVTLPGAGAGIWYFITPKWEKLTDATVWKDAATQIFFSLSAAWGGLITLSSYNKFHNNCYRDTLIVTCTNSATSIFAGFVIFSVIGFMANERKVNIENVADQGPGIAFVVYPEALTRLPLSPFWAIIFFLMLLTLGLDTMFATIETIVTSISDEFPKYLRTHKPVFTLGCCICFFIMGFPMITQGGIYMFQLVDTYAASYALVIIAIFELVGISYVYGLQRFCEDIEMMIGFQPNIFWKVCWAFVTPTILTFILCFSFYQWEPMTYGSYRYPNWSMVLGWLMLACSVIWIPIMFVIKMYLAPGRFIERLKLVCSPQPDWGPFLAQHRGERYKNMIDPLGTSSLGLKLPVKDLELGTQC
Method: GlyT2 (Glycine transporter type 2) is an electrogenic carrier associated with Na^+/Cl^− ion transportation, primarily distributed around the spinal cord part, and has an important role in the transfer of a pain signal in the spinal cord.
In order to identify the fact that the novel compound of the present invention has GlyT2 targeting activity, a membrane potential assay was performed. FLIPR Membrane Potential Assay is used to measure ion channel modulation caused by an increase or decrease in fluorescence signal due to variations of cellular membrane potential.
First, pcDNA4/TO vector encoding GlyT2 of the rat in HEK293 cell was transfected to prepare a stable recombinant cell line, i.e., T-rex-293-rGlyT2. A […] (Greiner #655090) coated with poly-D-lysine was prepared, and the above recombinant cells (T-rex-293-rGlyT2) were seeded at 3.2×10^4/well therein using a medium containing 15 μg/ml of tetracycline. After this, incubation was conducted at 37° C. for 48 hours under 5% CO2 conditions to express GlyT2. 10 ml of assay buffer (1×HBSS, 20 mM HEPES, pH 7.4) was added to a blue dye solution and sufficiently dissolved therein to prepare a membrane potential dye solution. After removing the medium from the well showing GlyT2 expression, the membrane potential dye solution was added to the well in an amount of 100 μl/well and incubated for 20 minutes.
According to the FLIPR Membrane Potential Assay kit's protocol, SoftMax Pro Software of FlexStation 3 software (Molecular Devices, US) was set up. An extent of GlyT2 expression was determined such that the extent of cellular membrane depolarization relative to an administered amount of glycine during glycine treatment is indicated in relative fluorescence units (RFU), and RFU (Max-Min) is calculated by subtracting the minimum value from the maximum value of RFU. After firstly treating 10 uM of the novel compound according to the present invention, glycine was treated and RFU (Max-Min) for glycine administration was determined. Then, with the determined result, the extent of depolarization inhibition (% inhibition) was assessed for each compound, compared to a positive control.
The positive control used herein was ORG25543 (500 nM) having strong inhibitory efficacy specific to GlyT2.
For GlyT2 inhibitory efficacy, the efficacy of the compound ORG25543 (500 nM) was defined as 100%. Similarly, for 5HT2A inhibitory efficacy, the efficacy of MDL11939 (100 nM) was defined as 100%. Therefore, the target inhibitory efficacy of each compound was indicated in a relative value compared to the above defined efficacy.

5HT2A = 5HT2A (Homo sapiens, UniProt P28223); test: FLIPR calcium assay for 5HT2A target activity (transfected HEK293 cells); format: cell-based
[2] = HEK293, read-out: 5HT2A % inhibition
[3] = 10 uM compound, then glycine, relative to ORG25543 (500 nM) defined as 100%
[4] = HEK293, 10 uM compound, then serotonin, relative to MDL11939 (100 nM) defined as 100%, read-out: 5HT2A % inhibition

Chain of 5HT2A (P28223 whole entry, species assumed): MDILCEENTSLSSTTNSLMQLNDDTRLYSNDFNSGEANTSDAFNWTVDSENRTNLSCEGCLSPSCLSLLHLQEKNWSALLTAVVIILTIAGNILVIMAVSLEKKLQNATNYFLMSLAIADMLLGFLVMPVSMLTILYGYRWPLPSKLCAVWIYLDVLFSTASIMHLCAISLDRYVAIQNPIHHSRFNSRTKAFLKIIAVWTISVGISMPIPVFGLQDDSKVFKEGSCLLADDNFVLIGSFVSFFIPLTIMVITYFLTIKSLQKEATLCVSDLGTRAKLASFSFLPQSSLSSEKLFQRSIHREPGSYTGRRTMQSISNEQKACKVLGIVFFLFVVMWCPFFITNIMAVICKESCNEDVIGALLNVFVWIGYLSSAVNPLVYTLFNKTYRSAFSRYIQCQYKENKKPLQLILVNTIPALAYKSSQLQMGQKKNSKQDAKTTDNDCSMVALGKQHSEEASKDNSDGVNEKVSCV

Row | Compound | inhibition at 10 µM (GlyT2) [%] | inhibition at 10 µM (5HT2A; [2]) [%] | inhibition at 10 µM (GlyT2; [3]) [%] | inhibition at 10 µM (5HT2A; [4]) [%] | also measured
1 | CCCCOc1c(OC)cc(C(=O)Nc2nnc(C)s2)cc1OC [VVZ-025] | – | – | – | – | analgesic efficacy compared to GBP positive control [1]: analgesic efficacy substantially equal to 0 °C superior to GBP
2 | CN1CCN(C2(CNC(=O)c3ccc(OCc4ccccc4)cc3)CCCCC2)CC1 [VVZ-069] | 83.9 | 150 | – | – | –
3 | Cc1cc(C(=O)NCC2(N3CCN(C)CC3)CCCCC2)cc(C)c1OCc1ccccc1 [VVZ-063] | 112 | 76.7 | – | – | –
4 | COc1cc(C(=O)NCC2CCCCN2C)cc(OC)c1OCc1ccccc1 (centres unmarked) [VVZ-009] | – | – | 117 | 90.4 | –
5 | COc1ccc(C(CNC(=O)c2cc(OC)c(OCc3ccccc3)c(OC)c2)N2CCCC2)cc1 (centres unmarked) [VVZ-015] | – | – | 108 | 57 | –
6 | COc1cc(C(=O)NCC2(N(C)C)CC=C(F)CC2)cc(OC)c1OCc1ccccc1 (centres unmarked) [VVZ-028] | – | 93.9 | 87.9 | – | –
7 | Cc1cc(C(=O)NCC(c2ccccc2)N(C)C)cc(C)c1OCc1ccccc1 (centres unmarked) [VVZ-046] | 113 | 54.2 | – | – | –
8 | CCN1CCC[C@@H]1CNC(=O)c1cc(OC)c(OCc2ccccc2)c(OC)c1 [VVZ-012] | – | – | 118 | 76.1 | –
9 | Cc1cc(C(=O)NCC2(O)CCN(C)CC2)cc(C)c1OCc1ccccc1 [VVZ-054] | – | – | 82.9 | 57.1 | –
10 | O=C(c1cccc(C(F)(F)F)c1)N1CCN(CCc2ccccc2)CC1 [VVZ-042] | – | – | 34.4 | 107 | –
11 | COc1cc(C(=O)NCC2(N3CCN(C)CC3)CCOCC2)cc(OC)c1OCc1ccccc1 [VVZ-071] | 78.8 | 60.8 | – | – | –
12 | O=C(NCC(c1ccccc1)N1CCOCC1)c1ccc(OCc2ccccc2)cc1 (centres unmarked) [VVZ-081] | 45.3 | 71.5 | – | – | –
13 | COc1cc(C(=O)N[C@H]2CN3CCC2CC3)cc(OC)c1OCc1ccccc1 [VVZ-003] | – | – | 78.2 | 31.6 | –
14 | CCCCOc1ccc(C(=O)NCC(c2ccccc2)N(C)C)cc1 (centres unmarked) [VVZ-052] | 76.6 | 103 | – | – | –
15 | COc1cc(C(=O)N[C@@H]2CCN(Cc3ccccc3)C2)cc(OC)c1OCc1ccccc1 [VVZ-011] | – | – | 88.8 | 56.2 | –
16 | COc1cc(C(=O)NCC(c2ccccc2)N(C)C)cc(OC)c1OCc1ccccc1 (centres unmarked) [VVZ-010] | – | – | – | – | GlyT2 % inhibition (GlyT2): 102.5%; 5HT2A % inhibition (5HT2A): 108.1%
17 | COc1cc(C(=O)NCC2(N(C)C)CCCCC2)cc(OC)c1OCc1ccccc1 [VVZ-037] | 100 | 99.8 | – | – | –
18 | CCCCOc1c(OC)cc(C(=O)NCC2(N3CCN(C)CC3)CCCCC2)cc1OC [VVZ-032] | – | – | – | – | analgesic efficacy compared to GBP positive control [1]: analgesic efficacy substantially equal to 0 °C superior to GBP
19 | COc1cc(C(=O)NCCN2CCOCC2)cc(OC)c1OCc1ccccc1 [VVZ-006] | – | 89.8 | 48.9 | – | –
20 | Cc1cc(C(=O)NCC2(N(C)C)CCC(F)(F)CC2)cc(C)c1OCc1ccccc1 [VVZ-058] | 102 | 134 | – | – | –
21 | CCCCOc1c(OC)cc(C(=O)NC[C@H]2CCCN2CC)cc1OC [VVZ-029] | – | – | 46 | 71.3 | –
22 | CN(C)C(CNC(=O)c1ccc(OCc2ccccc2)cc1)c1ccccc1 (centres unmarked) [VVZ-051] | 110 | 95 | – | – | –

Row | Compound | inhibition at 10 µM (GlyT2) [%] | inhibition at 10 µM (5HT2A; [2]) [%] | inhibition at 10 µM (GlyT2; [3]) [%] | inhibition at 10 µM (5HT2A; [4]) [%] | also measured
23 | COc1cc(C(=O)NCC2(N(C)C)CCC(F)(F)CC2)cc(OC)c1OCc1ccccc1 [VVZ-016] | 109 | 97.5 | – | – | –
24 | CN(C)C1(CNC(=O)c2cccc(C(F)(F)F)c2)CCC(F)(F)CC1 [VVZ-062] | – | – | – | – | analgesic efficacy compared to GBP positive control [1]: analgesic efficacy substantially equal to 0 °C superior to GBP
25 | COc1cc(C(=O)NCC(=O)N2CCC(C)CC2)cc(OC)c1OCc1ccccc1 [VVZ-040] | – | – | – | – | analgesic efficacy compared to GBP positive control [1]: analgesic efficacy substantially equal to 0 °C superior to GBP
26 | CCCCOc1c(C)cc(C(=O)NCC(c2ccccc2)N(C)C)cc1C (centres unmarked) [VVZ-057] | 101 | 65.7 | – | – | –
27 | Cc1cc(C(=O)NC(CN2CCOCC2)c2ccccc2)cc(C)c1OCc1ccccc1 (centres unmarked) [VVZ-080] | – | – | 40.6 | 113 | –
28 | COc1cc(C(=O)NC2CCN(Cc3ccccc3)C2)cc(OC)c1OCc1ccccc1 (centres unmarked) [VVZ-013] | – | – | 72.9 | 48.5 | –
29 | COc1cc(C(=O)NCC2(N(C)C)CCOCC2)cc(OC)c1OCc1ccccc1 [VVZ-036] | 103 | 66.1 | – | – | –
30 | COc1cc(C(=O)NCC(c2ccccc2)N2CCOCC2)cc(OC)c1OCc1ccccc1 (centres unmarked) [VVZ-018] | 76.8 | 70.7 | – | – | –
31 | COc1cc(C(=O)NCC2(NCc3ccccc3)CCOCC2)cc(OC)c1OCc1ccccc1 [VVZ-084] | – | – | 79 | 94.4 | –
32 | O=C(NCC1(N2CCOCC2)CCOCC1)c1ccc(OCc2ccccc2)cc1 [VVZ-076] | 50.6 | 113 | – | – | –
33 | CCCCOc1c(OC)cc(C(=O)NCC(c2ccccc2)N(C)C)cc1OC (centres unmarked) [VVZ-033] | 105 | 97.1 | – | – | –
34 | CCN1CCC[C@H]1CNC(=O)c1cc(OC)c(OCc2ccccc2)c(OC)c1 [VVZ-014] | – | – | 75 | 93.6 | –
35 | COc1cc(C(=O)NCC2(N3CCOCC3)CCOCC2)cc(OC)c1OCc1ccccc1 [VVZ-074] | 73.5 | 155 | – | – | –
36 | CN1CCN(C2(CNC(=O)c3ccc(OCc4ccccc4)cc3)CCOCC2)CC1 [VVZ-072] | 59.1 | 101 | – | – | –
37 | CCN(C)C1(CNC(=O)c2cc(OC)c(OCc3ccccc3)c(OC)c2)CC=C(F)CC1 (centres unmarked) [VVZ-050] | – | – | 117 | 108 | –
38 | COc1cc(N)c(Cl)cc1C(=O)NCC1(O)CCN(C)CC1 [VVZ-055] | – | – | 55.3 | 146 | –
39 | COc1cc(C(=O)NCC(c2ccccc2)N2CCCC2)cc(OC)c1OCc1ccccc1 (centres unmarked) [VVZ-035] | – | – | 84.8 | 101 | –
40 | CN(C)C1(CNC(=O)c2ccc(OCc3ccccc3)cc2)CCOCC1 [VVZ-065] | – | – | – | – | GlyT2 % inhibition (GlyT2): 105.1%; 5HT2A % inhibition (5HT2A): 107.8%
41 | CCCCOc1c(C)cc(C(=O)NCC2(O)CCN(C)CC2)cc1C [VVZ-053] | – | – | 59.6 | 31.4 | –
42 | COc1cc(C(=O)NCC(c2ccccc2)N(C)C)cc(OC)c1OCc1ccccc1 (centres unmarked) [VVZ-020] | 103 | 94.1 | – | – | –
43 | CN(C)C(CNC(=O)c1cccc(C(F)(F)F)c1)c1ccccc1 (centres unmarked) [VVZ-078] | – | – | – | – | analgesic efficacy compared to GBP positive control [1]: analgesic efficacy substantially equal to 0 °C superior to GBP
44 | COc1cc(N)c(Cl)cc1C(=O)N[C@H]1CN2CCC1CC2 [VVZ-047] | – | – | 23.4 | 78.8 | –

— US9359346B2, “Benzamide derivative and use thereof” (VIVOZON, INC., priority 2011, dated 2016)
